Test results as given in article PMC8474119, “Discovery and SAR Evolution of Pyrazole Azabicyclo[3.2.1]octane Sulfonamides as a Novel Class of Non-Covalent N-Acylethanolamine-Hydrolyzing Acid Amidase (NAAA) Inhibitors for Oral Administration” (Journal of Medicinal Chemistry, 2021).

Target: T1, h-NAAA (Homo sapiens, UniProt Q02083)
T1 construct: made in house; host or cells: HEK-293 cells stably overexpressing human NAAA; enzyme-enriched (lysosomal) lysate
T1 sequence (Q02083 29-125 limits assumed): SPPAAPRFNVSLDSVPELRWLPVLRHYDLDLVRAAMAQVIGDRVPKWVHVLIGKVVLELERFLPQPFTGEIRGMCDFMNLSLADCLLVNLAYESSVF
T1 sequence (Q02083 126-359 limits assumed): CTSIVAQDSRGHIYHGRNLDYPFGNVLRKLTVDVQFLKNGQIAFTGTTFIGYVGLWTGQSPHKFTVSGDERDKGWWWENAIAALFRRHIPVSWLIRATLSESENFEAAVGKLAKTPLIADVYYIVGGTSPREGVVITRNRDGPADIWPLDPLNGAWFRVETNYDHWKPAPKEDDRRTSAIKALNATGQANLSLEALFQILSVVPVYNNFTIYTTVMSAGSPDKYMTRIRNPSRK
Assay: Competitive activity-based protein profiling (ABPP) with probe ARN14686
Type: binding
Experimental: At the end of this preincubation time, the activity-based probe undec-10-ynyl-N-[(S)-2-oxoazetidin-3-yl]carbamate (ARN14686, see Figure S1, Supporting Information)[45] was added at 20 μM for 15 min or for 4 h at 37 °C. Next, click chemistry reaction was performed by adding the following reagents at the indicated final concentrations: 100 μM azide-PEG3-alexa fluor 545 (CLK-AZ109, Jena Bioscience), 1.0 mM tris(2-carboxyethyl)phosphine (TCEP) hydrochloride, 100 μM tris-[(1-benzyl-1H-1,2,3-triazol-4-yl)methyl]amine (TBTA), and 1 mM CuSO4·5H2O.[62] TBTA was first dissolved in DMSO at 83.5 mM and then diluted with four volumes of tert-butanol. The reaction was mixed by vortexing and incubated 2 h at 25 °C. Samples (10 μL) were analyzed by SDS-PAGE, and gel fluorescence was scanned at 532 nm wavelength (ChemidDoc MP, BIO-RAD).

CCOCc1cnc(O[C@H]2C[C@H]3CC[C@@H](C2)N3S(=O)(=O)c2c(C)n[nH]c2C)cn1 [Compound 50, (1R,3r,5S)-8-((3,5-Dimethyl-1H-pyrazol-4-yl)sulfonyl)-3-((5-(ethoxymethyl)pyrazin-2-yl)oxy)-8-azabicyclo[3.2.1]octane]
effect on h-NAAA labeling by ABP ARN14686, 15 min probe incubation (20 μM, lysosomal extracts of h-NAAA overexpressing HEK-293 cells, probe 15 min): prevented the binding
effect on h-NAAA labeling by ABP ARN14686, 4 h probe incubation (20 μM, lysosomal extracts of h-NAAA overexpressing HEK-293 cells, probe 4 h): almost totally reverted
mode of interaction with h-NAAA (competitive ABPP): non-covalent interaction with h-NAAA
